Source: ChEMBL document CHEMBL6121003, “Design, synthesis, and pharmacological evaluation of triazine-based PI3K/mTOR inhibitors for the potential treatment of non-small cell lung cancer” (Eur J Med Chem, 2025)

Key:
PC-9 = test: Antiproliferative activity against human PC-9 cells measured after 48 hrs by MTT assay; assay type: functional, cell-based; conditions: PC-9, 48 h
HCC827 = test: Antiproliferative activity against human HCC827 cells measured after 48 hrs by MTT assay; assay type: functional, cell-based; conditions: HCC827, 48 h
[1] = biological target: Phosphatidylinositol 4,5-bisphosphate 3-kinase catalytic subunit alpha isoform (Homo sapiens, UniProt P42336)
Chain of Phosphatidylinositol 4,5-bisphosphate 3-kinase catalytic subunit alpha isoform (P42336 whole entry, canonical isoform): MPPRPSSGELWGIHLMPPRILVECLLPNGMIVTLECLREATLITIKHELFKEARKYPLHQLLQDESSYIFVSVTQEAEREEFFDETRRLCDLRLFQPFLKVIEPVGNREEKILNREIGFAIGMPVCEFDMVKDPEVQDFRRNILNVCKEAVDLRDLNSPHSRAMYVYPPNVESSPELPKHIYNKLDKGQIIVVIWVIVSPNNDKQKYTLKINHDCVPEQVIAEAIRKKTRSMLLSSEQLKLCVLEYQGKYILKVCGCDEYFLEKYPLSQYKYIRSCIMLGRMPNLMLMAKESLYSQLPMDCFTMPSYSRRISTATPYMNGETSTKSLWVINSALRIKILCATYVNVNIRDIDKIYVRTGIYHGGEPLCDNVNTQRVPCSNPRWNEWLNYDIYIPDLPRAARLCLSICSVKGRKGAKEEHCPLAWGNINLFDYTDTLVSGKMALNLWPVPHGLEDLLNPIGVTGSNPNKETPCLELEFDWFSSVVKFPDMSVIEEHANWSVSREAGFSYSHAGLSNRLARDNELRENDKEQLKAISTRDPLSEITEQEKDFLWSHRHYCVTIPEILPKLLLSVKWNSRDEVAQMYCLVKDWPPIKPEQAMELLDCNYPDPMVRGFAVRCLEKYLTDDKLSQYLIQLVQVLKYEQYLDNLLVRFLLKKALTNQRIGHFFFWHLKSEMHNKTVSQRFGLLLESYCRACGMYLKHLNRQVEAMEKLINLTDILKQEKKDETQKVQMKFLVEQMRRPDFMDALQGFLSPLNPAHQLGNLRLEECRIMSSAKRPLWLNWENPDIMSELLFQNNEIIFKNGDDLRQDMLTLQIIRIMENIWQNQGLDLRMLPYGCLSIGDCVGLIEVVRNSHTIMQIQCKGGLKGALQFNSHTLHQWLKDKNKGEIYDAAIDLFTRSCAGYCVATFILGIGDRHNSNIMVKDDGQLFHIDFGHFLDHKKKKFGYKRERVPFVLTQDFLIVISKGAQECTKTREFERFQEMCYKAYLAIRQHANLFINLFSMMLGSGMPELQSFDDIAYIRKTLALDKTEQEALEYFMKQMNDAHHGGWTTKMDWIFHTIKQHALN
Description: Inhibition of PI3Kalpha (unknown origin) using PIP2 as substrate measured after 1 hr in presence of ATP by ADP-glo luminescence assay

[2] = biological target: Serine/threonine-protein kinase mTOR (Homo sapiens, UniProt P42345); test: Inhibition of mTOR (unknown origin) using ULight-4E-BP1 as substrate measured after 45 mins in presence of ATP by Lance ultra assay
CYP3A4 = CYP3A4 (Homo sapiens, UniProt P08684); test: Inhibition of CYP3A4 (unknown origin) at 10 uM relative to control; assay type: ADME
CYP2D6 = CYP2D6 (Homo sapiens, UniProt P10635); test: Inhibition of CYP2D6 (unknown origin) at 10 uM relative to control; assay type: ADME
Chain of CYP2D6 (P10635 whole entry): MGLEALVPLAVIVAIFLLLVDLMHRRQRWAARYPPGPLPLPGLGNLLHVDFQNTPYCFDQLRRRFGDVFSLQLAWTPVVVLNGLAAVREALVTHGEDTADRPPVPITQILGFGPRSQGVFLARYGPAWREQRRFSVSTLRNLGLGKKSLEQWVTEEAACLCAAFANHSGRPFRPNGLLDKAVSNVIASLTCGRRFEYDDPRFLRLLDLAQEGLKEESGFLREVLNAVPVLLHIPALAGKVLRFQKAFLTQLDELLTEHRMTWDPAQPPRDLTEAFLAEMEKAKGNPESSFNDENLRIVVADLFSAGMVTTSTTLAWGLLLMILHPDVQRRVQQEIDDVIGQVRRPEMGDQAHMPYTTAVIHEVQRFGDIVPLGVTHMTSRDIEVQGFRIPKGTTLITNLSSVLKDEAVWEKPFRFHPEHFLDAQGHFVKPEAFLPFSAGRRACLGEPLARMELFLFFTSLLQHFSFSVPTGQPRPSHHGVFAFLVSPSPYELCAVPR

CYP1A2 = biological target: T1, CYP1A2 (Homo sapiens, UniProt P05177); test: Inhibition of CYP1A2 (unknown origin) at 10 uM relative to control; assay type: ADME
T1 sequence (P05177 whole entry): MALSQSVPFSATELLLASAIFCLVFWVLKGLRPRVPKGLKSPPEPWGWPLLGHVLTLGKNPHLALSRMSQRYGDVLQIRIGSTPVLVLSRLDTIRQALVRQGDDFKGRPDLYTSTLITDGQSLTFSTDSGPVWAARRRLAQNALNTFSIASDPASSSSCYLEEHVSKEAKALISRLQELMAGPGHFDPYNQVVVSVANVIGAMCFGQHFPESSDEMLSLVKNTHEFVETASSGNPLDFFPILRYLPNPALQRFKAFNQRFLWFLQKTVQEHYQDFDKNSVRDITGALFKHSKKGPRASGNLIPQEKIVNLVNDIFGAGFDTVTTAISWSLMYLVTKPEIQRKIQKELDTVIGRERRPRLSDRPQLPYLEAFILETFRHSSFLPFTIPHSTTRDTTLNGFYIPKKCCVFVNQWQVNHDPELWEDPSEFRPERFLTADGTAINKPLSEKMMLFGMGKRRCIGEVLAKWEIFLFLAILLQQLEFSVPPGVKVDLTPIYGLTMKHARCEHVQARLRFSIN

[3] = biological target: Phosphatidylinositol 4,5-bisphosphate 3-kinase catalytic subunit beta isoform (Homo sapiens, UniProt P42338); test: Inhibition of PI3Kbeta (unknown origin) using PIP2 as substrate measured after 1 hr in presence of ATP by ADP-glo luminescence assay
Chain of Phosphatidylinositol 4,5-bisphosphate 3-kinase catalytic subunit beta isoform (P42338 whole entry, canonical isoform): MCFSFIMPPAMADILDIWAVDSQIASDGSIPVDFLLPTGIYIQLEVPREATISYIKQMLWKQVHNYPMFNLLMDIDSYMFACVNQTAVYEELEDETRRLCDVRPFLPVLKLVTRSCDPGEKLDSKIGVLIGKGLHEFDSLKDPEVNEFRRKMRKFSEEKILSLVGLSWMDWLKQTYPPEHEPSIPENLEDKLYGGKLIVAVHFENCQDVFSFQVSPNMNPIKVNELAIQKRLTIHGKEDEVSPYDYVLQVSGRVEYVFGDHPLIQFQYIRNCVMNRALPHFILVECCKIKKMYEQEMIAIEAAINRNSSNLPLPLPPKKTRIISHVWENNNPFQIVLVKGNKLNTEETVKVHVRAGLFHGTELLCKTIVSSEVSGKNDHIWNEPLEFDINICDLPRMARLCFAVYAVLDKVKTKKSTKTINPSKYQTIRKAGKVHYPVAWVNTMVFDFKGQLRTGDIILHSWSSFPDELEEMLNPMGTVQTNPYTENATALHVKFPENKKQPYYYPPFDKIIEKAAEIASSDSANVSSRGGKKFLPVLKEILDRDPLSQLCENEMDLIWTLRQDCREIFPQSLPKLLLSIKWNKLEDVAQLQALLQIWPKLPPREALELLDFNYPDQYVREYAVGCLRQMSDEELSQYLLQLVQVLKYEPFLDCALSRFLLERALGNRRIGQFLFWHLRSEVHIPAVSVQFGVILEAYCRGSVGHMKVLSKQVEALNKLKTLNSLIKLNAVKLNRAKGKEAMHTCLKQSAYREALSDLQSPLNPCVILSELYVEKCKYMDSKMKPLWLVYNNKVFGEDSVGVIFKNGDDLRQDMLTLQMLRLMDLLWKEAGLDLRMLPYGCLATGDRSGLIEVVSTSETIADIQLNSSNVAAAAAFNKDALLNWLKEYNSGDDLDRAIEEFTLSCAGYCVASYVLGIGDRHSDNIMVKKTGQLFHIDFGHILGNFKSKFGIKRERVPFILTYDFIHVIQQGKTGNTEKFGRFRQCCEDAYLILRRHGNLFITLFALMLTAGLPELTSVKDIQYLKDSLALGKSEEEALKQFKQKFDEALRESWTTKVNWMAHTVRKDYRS

CYP2C9 = CYP2C9 (Homo sapiens, UniProt P11712); test: Inhibition of CYP2C9 (unknown origin) at 10 uM relative to control; assay type: ADME
hERG (KCNH2) = hERG (KCNH2) (Homo sapiens, UniProt Q12809); test: Inhibition of human ERG at 20 uM relative to control; assay type: toxicity
Chain of hERG (KCNH2) (Q12809 whole entry, canonical isoform): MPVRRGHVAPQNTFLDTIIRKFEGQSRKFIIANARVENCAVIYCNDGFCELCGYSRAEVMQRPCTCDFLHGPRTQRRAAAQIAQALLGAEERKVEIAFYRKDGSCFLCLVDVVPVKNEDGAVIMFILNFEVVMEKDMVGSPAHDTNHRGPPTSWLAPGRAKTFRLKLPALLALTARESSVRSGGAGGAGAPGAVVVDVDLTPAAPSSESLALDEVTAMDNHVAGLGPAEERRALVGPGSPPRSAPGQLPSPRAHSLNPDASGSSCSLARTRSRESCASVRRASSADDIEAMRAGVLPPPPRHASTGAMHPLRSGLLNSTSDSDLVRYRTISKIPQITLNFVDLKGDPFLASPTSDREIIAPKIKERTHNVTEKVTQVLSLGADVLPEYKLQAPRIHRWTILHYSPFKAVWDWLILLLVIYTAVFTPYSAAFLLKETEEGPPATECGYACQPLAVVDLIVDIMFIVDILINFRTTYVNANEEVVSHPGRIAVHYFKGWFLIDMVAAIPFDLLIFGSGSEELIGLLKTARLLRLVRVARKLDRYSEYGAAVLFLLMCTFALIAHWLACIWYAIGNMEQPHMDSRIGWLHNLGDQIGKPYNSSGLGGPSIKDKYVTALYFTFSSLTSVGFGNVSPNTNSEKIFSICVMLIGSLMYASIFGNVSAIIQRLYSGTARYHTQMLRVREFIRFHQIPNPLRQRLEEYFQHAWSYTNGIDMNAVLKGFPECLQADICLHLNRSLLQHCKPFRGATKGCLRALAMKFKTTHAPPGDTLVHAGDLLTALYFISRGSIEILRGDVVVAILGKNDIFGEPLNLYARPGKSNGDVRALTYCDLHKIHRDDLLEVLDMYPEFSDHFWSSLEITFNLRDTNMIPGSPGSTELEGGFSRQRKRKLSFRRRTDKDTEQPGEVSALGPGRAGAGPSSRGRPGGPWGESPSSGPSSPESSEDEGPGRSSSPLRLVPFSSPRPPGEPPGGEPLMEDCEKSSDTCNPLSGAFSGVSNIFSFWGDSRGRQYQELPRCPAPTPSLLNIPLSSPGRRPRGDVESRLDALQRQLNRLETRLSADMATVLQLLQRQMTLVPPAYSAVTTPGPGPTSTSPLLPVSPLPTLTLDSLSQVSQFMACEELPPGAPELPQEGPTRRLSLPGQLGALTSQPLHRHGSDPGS

[4] = biological target: T2, Phosphatidylinositol 4,5-bisphosphate 3-kinase catalytic subunit delta isoform (Homo sapiens, UniProt O00329); test: Inhibition of PI3K delta (unknown origin) using PIP2 as substrate measured after 1 hr in presence of ATP by ADP-glo luminescence assay
T2 sequence (O00329 whole entry): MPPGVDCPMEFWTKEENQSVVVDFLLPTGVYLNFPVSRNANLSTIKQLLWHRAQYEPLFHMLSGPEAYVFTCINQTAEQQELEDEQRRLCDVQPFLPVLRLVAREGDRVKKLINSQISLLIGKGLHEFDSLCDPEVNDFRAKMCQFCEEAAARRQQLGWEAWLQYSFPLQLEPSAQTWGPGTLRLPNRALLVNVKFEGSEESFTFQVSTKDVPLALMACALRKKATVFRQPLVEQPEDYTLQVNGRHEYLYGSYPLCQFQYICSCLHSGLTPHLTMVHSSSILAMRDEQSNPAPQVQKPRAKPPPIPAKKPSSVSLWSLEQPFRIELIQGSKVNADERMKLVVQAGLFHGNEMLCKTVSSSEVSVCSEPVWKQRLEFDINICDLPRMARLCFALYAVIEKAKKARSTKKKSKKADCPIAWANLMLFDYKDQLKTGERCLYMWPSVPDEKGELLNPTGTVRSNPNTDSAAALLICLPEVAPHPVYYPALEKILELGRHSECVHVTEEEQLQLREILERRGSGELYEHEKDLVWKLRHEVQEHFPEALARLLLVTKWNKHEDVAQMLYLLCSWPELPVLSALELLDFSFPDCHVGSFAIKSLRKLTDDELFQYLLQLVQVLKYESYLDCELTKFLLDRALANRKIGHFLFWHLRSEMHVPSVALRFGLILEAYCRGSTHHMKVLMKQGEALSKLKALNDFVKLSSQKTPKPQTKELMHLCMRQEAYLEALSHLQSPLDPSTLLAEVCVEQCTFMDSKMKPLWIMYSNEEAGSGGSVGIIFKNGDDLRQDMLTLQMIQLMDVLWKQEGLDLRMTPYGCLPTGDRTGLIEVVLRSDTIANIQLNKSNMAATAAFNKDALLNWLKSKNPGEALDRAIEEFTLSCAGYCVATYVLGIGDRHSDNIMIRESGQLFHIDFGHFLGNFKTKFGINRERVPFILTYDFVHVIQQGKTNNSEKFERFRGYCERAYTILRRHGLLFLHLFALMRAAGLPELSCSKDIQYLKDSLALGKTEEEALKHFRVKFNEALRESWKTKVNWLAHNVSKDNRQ

[5] = biological target: Phosphatidylinositol 4,5-bisphosphate 3-kinase catalytic subunit gamma isoform (Homo sapiens, UniProt P48736); test: Inhibition of PI3K gamma (unknown origin) using PIP2 as substrate measured after 1 hr in presence of ATP by ADP-glo luminescence assay
Chain of Phosphatidylinositol 4,5-bisphosphate 3-kinase catalytic subunit gamma isoform (P48736 whole entry, canonical isoform): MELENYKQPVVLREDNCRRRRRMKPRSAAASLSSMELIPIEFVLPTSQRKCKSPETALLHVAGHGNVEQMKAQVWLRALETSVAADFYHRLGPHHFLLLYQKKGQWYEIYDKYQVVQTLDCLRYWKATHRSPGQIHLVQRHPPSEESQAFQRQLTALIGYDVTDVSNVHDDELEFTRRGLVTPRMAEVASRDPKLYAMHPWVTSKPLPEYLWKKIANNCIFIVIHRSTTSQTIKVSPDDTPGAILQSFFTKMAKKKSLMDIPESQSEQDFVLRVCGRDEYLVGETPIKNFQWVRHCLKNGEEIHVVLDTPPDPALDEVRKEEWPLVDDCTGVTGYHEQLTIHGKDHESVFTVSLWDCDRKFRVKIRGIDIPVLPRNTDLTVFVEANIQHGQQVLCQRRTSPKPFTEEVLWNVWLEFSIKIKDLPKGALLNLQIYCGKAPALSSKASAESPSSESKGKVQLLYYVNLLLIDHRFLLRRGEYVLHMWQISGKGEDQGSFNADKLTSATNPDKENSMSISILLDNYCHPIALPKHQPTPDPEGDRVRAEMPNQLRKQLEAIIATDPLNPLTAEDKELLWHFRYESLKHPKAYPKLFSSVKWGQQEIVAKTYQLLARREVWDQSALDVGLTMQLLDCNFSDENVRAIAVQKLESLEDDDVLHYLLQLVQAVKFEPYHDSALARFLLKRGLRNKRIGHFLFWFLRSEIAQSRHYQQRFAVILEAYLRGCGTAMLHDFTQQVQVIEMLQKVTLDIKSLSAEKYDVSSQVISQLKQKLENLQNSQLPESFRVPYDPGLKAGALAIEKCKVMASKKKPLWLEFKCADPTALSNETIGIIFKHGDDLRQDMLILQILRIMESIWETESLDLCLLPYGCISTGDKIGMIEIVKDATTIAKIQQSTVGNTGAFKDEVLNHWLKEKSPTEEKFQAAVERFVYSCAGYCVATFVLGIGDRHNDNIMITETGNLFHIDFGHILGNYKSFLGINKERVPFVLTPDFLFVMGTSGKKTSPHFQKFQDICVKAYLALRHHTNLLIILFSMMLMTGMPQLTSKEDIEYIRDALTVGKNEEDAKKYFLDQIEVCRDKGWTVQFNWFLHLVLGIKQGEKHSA

[6] = Toxicity in 8 hrs fasted ICR mouse assessed as effect on blood glucose level at 20 mg/kg, iv measured upto 240 mins by glucometer analysis; assay type: organism-based; conditions: in vivo, 4 h
[7] = Toxicity in nude male Balb/c mouse assessed as effect on body weight at 20 mg/kg, po administered daily for 2 weeks; assay type: organism-based; conditions: in vivo, 336 h

Row | Compound | IC50 [1] | IC50 [2] | IC50 [3] | IC50 [4] | IC50 [5] | other results
1 | O=C(c1ccc(NC(=S)Nc2ccc(-c3nc(N4CCOCC4)nc(N4CCOCC4)n3)cc2)cc1)N1CCCC(CO)C1 (stereo unspecified) | 36.6 nM |  |  |  |  | IC50 (PC-9): 4320 nM; IC50 (HCC827): 1980 nM
2 | O=C(Nc1ccc(C(=O)N2CCC[C@H]2CO)cc1)Nc1ccc(-c2nc(N3CCOCC3)nc(N3CCOCC3)n2)cc1 |  | 2.9 nM | 1.1 nM | 9.3 nM | 4.8 nM | inhibition at 10 µM (CYP3A4): 20%; inhibition at 10 µM (CYP2D6): 25%; inhibition at 10 µM (CYP1A2): 10%; inhibition at 10 µM (CYP2C9): 15%; inhibition at 20 µM (hERG (KCNH2)): 15%
3 | CN1CCN(C(=O)c2ccc(NC(=S)Nc3ccc(-c4nc(N5CCOCC5)nc(N5CCOCC5)n4)cc3)cc2)CC1 |  | 127 nM | 169 nM | 338 nM | 657 nM | 
4 | O=C(c1ccc(NC(=S)Nc2ccc(-c3nc(N4CCOCC4)nc(N4CCOCC4)n3)cc2)cc1)N1CCN(C(=O)C2CCCO2)CC1 (stereo unspecified) | 20.3 nM |  |  |  |  | IC50 (PC-9): 32700 nM; IC50 (HCC827): 19800 nM
5 | O=C(c1ccc(NC(=S)Nc2ccc(-c3nc(N4CCOCC4)nc(N4CCOCC4)n3)cc2)cc1)N1CCC[C@H]1CO |  | 24.3 nM | 35.4 nM | 106 nM | 123 nM | 
6 | O=C(Nc1ccc(C(=O)N2CCC[C@@H]2CO)cc1)Nc1ccc(-c2nc(N3CCOCC3)nc(N3CCOCC3)n2)cc1 |  | 4.9 nM | 42.5 nM | 34.1 nM | 32.3 nM | 
7 | O=C(c1ccc(NC(=S)Nc2ccc(-c3nc(N4CCOCC4)nc(N4CCOCC4)n3)cc2)cc1)N1CCCCC1CO (stereo unspecified) | 70.4 nM |  |  |  |  | 
8 | CN(C)C1CCN(C(=O)c2ccc(NC(=O)Nc3ccc(-c4nc(N5CCOCC5)nc(N5CCOCC5)n4)cc3)cc2)CC1 [GEDATOLISIB] |  |  |  |  |  | Activity [6]: Toxic; Activity [7]: Non-toxic
9 | COc1ncc(-c2ccc3nccc(-c4ccnnc4)c3c2)cc1NS(=O)(=O)c1ccc(F)cc1F [OMIPALISIB] |  |  |  |  | 0.86 nM | 
